PubChem BioAssay (NCI)
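Grown in 96-well plates, cells were treated for 48 hours with each compound at five concentrations. Insufficient inhibition: endpoint recorded as highest concentration tested. At the TGI there is no net growth.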

Legend:
Assay in all cases: NCI anticancer screen, dose series, 48 h
786-0 renal = test system: 786-0 renal
A549 NSCLC = test system: A549 NSCLC
ACHN renal = test system: ACHN renal
CAKI-1 renal = test system: CAKI-1 renal
CCRF-CEM leukemia = test system: CCRF-CEM leukemia
COLO 205 colon = test system: COLO 205 colon
DU-145 prostate = test system: DU-145 prostate
EKVX NSCLC = test system: EKVX NSCLC
HCC-2998 colon = test system: HCC-2998 colon
HCT-116 colon = test system: HCT-116 colon
HCT-15 colon = test system: HCT-15 colon
HL-60(TB) leukemia = test system: HL-60(TB) leukemia
HOP-62 NSCLC = test system: HOP-62 NSCLC
HOP-92 NSCLC = test system: HOP-92 NSCLC
HS 578T breast = test system: HS 578T breast
HT29 colon = test system: HT29 colon
IGROV1 ovarian = test system: IGROV1 ovarian
K-562 leukemia = test system: K-562 leukemia
KM12 colon = test system: KM12 colon
LOX IMVI melanoma = test system: LOX IMVI melanoma
M14 melanoma = test system: M14 melanoma
MALME-3M melanoma = test system: MALME-3M melanoma
MCF7 breast = test system: MCF7 breast
MDA-MB-231 breast = test system: MDA-MB-231 breast
MDA-MB-435 = test system: MDA-MB-435
MDA-N = test system: MDA-N
MOLT-4 leukemia = test system: MOLT-4 leukemia
NCI-H226 lung = test system: NCI-H226 lung
NCI-H23 lung = test system: NCI-H23 lung
NCI-H460 lung = test system: NCI-H460 lung
NCI-H522 lung = test system: NCI-H522 lung
NCI/ADR-RES ovarian = test system: NCI/ADR-RES ovarian
OVCAR-3 ovarian = test system: OVCAR-3 ovarian
OVCAR-4 ovarian = test system: OVCAR-4 ovarian
OVCAR-5 ovarian = test system: OVCAR-5 ovarian
OVCAR-8 ovarian = test system: OVCAR-8 ovarian
PC-3 prostate = test system: PC-3 prostate
RPMI-8226 leukemia = test system: RPMI-8226 leukemia
RXF 393 renal = test system: RXF 393 renal
SF-268 CNS = test system: SF-268 CNS
SF-295 CNS = test system: SF-295 CNS
SF-539 CNS = test system: SF-539 CNS
SK-MEL-2 melanoma = test system: SK-MEL-2 melanoma
SK-MEL-28 melanoma = test system: SK-MEL-28 melanoma
SK-MEL-5 melanoma = test system: SK-MEL-5 melanoma
SK-OV-3 ovarian = test system: SK-OV-3 ovarian
SN12C renal = test system: SN12C renal
SNB-19 CNS = test system: SNB-19 CNS
SNB-75 CNS = test system: SNB-75 CNS
SR leukemia = test system: SR leukemia
SW-620 colon = test system: SW-620 colon
T-47D breast = test system: T-47D breast
TK-10 renal = test system: TK-10 renal
U251 CNS = test system: U251 CNS
UACC-257 melanoma = test system: UACC-257 melanoma
UACC-62 melanoma = test system: UACC-62 melanoma
UO-31 renal = test system: UO-31 renal

Measured: TGI

CC(NCc1c(O)ccc2c(-c3ccccc3)cc(=O)oc12)C(=O)O (configuration not stated)
> 100 µM: 786-0 renal | A549 NSCLC | ACHN renal | CAKI-1 renal | CCRF-CEM leukemia | COLO 205 colon | DU-145 prostate | EKVX NSCLC | HCC-2998 colon | HCT-116 colon | HCT-15 colon | HL-60(TB) leukemia | HOP-62 NSCLC | HOP-92 NSCLC | HS 578T breast | HT29 colon | IGROV1 ovarian | K-562 leukemia | KM12 colon | LOX IMVI melanoma | M14 melanoma | MALME-3M melanoma | MCF7 breast | MDA-MB-231 breast | MDA-MB-435 | MDA-N | MOLT-4 leukemia | NCI-H226 lung | NCI-H23 lung | NCI-H460 lung | NCI-H522 lung | NCI/ADR-RES ovarian | OVCAR-3 ovarian | OVCAR-4 ovarian | OVCAR-5 ovarian | OVCAR-8 ovarian | PC-3 prostate | RPMI-8226 leukemia | RXF 393 renal | SF-268 CNS | SF-295 CNS | SF-539 CNS | SK-MEL-2 melanoma | SK-MEL-28 melanoma | SK-MEL-5 melanoma | SK-OV-3 ovarian | SN12C renal | SNB-19 CNS | SNB-75 CNS | SR leukemia | SW-620 colon | T-47D breast | TK-10 renal | U251 CNS | UACC-257 melanoma | UACC-62 melanoma | UO-31 renal
